According to ChEMBL document CHEMBL1158717, “A cytotoxic carotenoid from the marine sponge Prianos osiros” (J Nat Prod, 2005):
In brackets after ≈: the same amount, converted by molar mass.

System: HCT-116
Test: Cytotoxicity against human HCT116 after 72 hrs by MTS assay
Type: functional, cell-based
Conditions: HCT-116, 72 h

## CC1=C(C#C/C(=C/C=C/C(C)=C/C=C/C=C(C)/C=C/C=C(\C)C(=O)/C=C2\C(C)(C)C[C@H](O)C[C@@]2(C)O)CO)C(C)(C)C[C@H](O)C1
  IC50: 4.38 µg/mL (≈ 7.12 µM)
